Reference: patent US10428080B2, “TBK/IKK inhibitor compounds and uses thereof” (Merck Patent GmbH, priority 2015, dated 2019)

Experiments:
TBK1 = target: T1, TBK1 (Homo sapiens, UniProt Q9UHD2); test: TBK Biochemical Assay; settings: read-out: TBK1 IC50
T1 sequence (Q9UHD2 1-729): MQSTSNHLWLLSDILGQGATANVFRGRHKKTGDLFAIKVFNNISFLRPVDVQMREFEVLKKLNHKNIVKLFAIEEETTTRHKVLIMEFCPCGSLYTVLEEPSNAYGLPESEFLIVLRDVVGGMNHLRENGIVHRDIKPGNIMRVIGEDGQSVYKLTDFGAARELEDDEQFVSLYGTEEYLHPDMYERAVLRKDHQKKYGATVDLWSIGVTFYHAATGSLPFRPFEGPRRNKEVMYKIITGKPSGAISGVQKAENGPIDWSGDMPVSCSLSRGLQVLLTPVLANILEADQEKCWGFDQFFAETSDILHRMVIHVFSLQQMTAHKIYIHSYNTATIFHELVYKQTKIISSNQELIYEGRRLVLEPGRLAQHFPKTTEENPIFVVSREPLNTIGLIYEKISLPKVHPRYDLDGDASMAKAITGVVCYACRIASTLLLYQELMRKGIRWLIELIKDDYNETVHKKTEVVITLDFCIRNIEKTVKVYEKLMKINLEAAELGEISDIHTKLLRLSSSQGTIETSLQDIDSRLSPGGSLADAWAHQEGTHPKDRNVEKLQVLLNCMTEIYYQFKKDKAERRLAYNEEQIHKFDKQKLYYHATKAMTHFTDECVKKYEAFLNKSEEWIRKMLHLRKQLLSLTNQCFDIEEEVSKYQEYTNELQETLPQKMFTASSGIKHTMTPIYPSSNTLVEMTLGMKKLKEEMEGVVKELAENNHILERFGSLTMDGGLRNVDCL
In short: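 Caliper LabChip mobility-shift readout of substrate and product after 90 min of TBK1 reaction at 25° C and stop-buffer addition. Compounds tested in 1:4 serial dilution over 10 points from 30 uM final at 1% DMSO; staurosporine 10 uM final defines full inhibition.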

IKKε = target: T2, IKKε (Homo sapiens, UniProt Q14164); test: IKKe Biochemical Assay; settings: read-out: IKKε IC50
T2 sequence (Q14164 1-716): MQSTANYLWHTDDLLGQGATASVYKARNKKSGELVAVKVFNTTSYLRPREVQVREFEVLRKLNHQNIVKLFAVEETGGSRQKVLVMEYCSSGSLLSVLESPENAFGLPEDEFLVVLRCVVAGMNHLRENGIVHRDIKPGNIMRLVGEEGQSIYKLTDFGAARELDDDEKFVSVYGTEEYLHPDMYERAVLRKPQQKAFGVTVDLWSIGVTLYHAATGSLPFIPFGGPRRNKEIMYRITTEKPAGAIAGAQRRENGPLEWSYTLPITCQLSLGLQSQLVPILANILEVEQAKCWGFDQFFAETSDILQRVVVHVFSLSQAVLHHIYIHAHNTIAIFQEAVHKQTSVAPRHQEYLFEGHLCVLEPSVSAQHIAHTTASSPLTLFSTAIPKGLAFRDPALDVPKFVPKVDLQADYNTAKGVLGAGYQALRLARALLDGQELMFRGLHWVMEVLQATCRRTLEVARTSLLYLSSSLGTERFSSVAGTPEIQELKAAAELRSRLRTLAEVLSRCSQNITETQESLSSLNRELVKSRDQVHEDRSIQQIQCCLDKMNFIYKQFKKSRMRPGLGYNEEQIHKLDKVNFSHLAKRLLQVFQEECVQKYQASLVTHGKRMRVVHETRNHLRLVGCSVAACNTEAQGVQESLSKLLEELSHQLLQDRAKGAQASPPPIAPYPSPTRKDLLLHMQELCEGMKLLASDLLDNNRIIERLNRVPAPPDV
In short: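 Activity was measured as mobility-shift separation of phosphorylated from unphosphorylated substrate on a LabChip EZ Reader. Compound was titrated from 30 uM final in 10 points, 1:4 steps, with 1% DMSO, and enzyme plus substrate reacted 90 min at 25° C before stop buffer. Control wells held 10 uM staurosporine.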

[1] = system: phosphorylation of the IRF-3 protein in MDA-MB-468 cells; test: pIRF3 immunocytochemistry cell based assay; settings: Homo sapiens; MDA-MB-468 cells, Poly(I:C) stimulation; read-out: pIRF3 IC50
In short: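 After 2 h stimulation with Poly(I:C) (10 ug/ml), following 1 h compound pre-treatment (10-point, 3-fold dilution, top 10 uM), MDA-MB-468 cells were fixed and stained with anti-pIRF3 antibody. pIRF3 fluorescence was normalized to PI staining or cell count on an Acumen cytometer. IC50 curves were derived from this.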

Structure (SMILES)	IC50 (TBK1)	IC50 (IKKε)	IC50 [1]
COc1cc(C(=O)N(C)C)cnc1-c1cc2nccc(-c3ccc(OC4CCN(C)CC4(F)F)c(C#N)c3)c2o1 (stereo not drawn) [Compound 404, 6-(7-[3-cyano-4-[(3,3-difluoro-1-methylpiperidin-4-yl)oxy]phenyl]furo[3,2-b]pyridin-2-yl)-5-methoxy-N,N-dimethylpyridine-3-carboxamide]	< 100 nM	< 100 nM	100 to 1000 nM
COc1cc(C(=O)NC2CN(C)C2)ccc1-c1cc2nccc(-c3ccc(OC4CCOCC4)c(C#N)c3)c2o1 [Compound 28, 4-{7-[3-Cyano-4-(tetrahydro-pyran-4-yloxy)-phenyl]-furo[3,2-b]pyridin-2-yl}-3-methoxy-N-(1-methyl-azetidin-3-yl)-benzamide]	< 100 nM	< 100 nM	< 100 nM
COc1cc(C(=O)N2CCN(C)CC2)cnc1-c1cc2nccc(-c3ccc(N4CC[C@@H](F)C4)c(C#N)c3)c2o1 [Compound 462, 2-(3(R)-fluoropyrrolidin-1-yl)-5-(2-[3-methoxy-5-[(4-methylpiperazin-1-yl)carbonyl]pyridin-2-yl]furo[3,2-b]pyridin-7-yl)benzonitrile]	< 100 nM	< 100 nM	< 100 nM
COc1cc(C(=O)NC2(C)CCCN(C)C2)ccc1-c1cc2nccc(-c3ccc(OC4CCOCC4)c(C#N)c3)c2o1 (stereo not drawn) [Compound 367, 4-[7-[3-cyano-4-(oxan-4-yloxy)phenyl]furo[3,2-b]pyridin-2-yl]-N-(1,3-dimethylpiperidin-3-yl)-3-methoxybenzamide]	< 100 nM	< 100 nM	< 100 nM
CN(CCO)C(=O)c1ccc(-c2cc3ncc(F)c(-c4ccc(OC5CCOCC5)c(C#N)c4)c3o2)c(F)c1 [Compound 302, 4-[7-[3-cyano-4-(oxan-4-yloxy)phenyl]-6-fluorofuro[3,2-b]pyridin-2-yl]-3-fluoro-N-(2-hydroxyethyl)-N-methylbenzamide]	< 100 nM	< 100 nM	100 to 1000 nM
COc1cc(C(=O)NCC(C)(C)N(C)C)ccc1-c1cc2nccc(-c3ccc(OC4CCOCC4)c(C#N)c3)c2o1 [Compound 500, 4-{7-[3-Cyano-4-(tetrahydro-pyran-4-yloxy)-phenyl]-furo[3,2-b]pyridin-2-yl}-N-(2-dimethylamino-2-methyl-propyl)-3-methoxy-benzamide]	< 100 nM	< 100 nM	100 to 1000 nM
CN(C)C(=O)c1ccc(-c2cc3ncc(F)c(-c4ccc(OC5CCOCC5)c(C#N)c4)c3o2)c(F)c1 [Compound 301, 4-[7-[3-cyano-4-(oxan-4-yloxy)phenyl]-6-fluorofuro[3,2-b]pyridin-2-yl]-3-fluoro-N,N-dimethylbenzamide]	< 100 nM	< 100 nM	1000 to 5000 nM
CC(C)N1CCN(C(=O)c2ccc(-c3cc4nccc(-c5ccc(OC6CCOCC6)c(C#N)c5)c4o3)cc2)CC1 [Compound 116, 5-{2-[4-(4-Isopropyl-piperazine-1-carbonyl)-phenyl]-furo[3,2-b]pyridin-7-yl}-2-(tetrahydro-pyran-4-yloxy)-benzonitrile]	< 100 nM	< 100 nM	100 to 1000 nM
COc1cc(C(=O)N[C@H]2C[C@H](CO)N(C)C2)ccc1-c1cc2nccc(-c3ccc(OC4CCOCC4)c(C#N)c3)c2o1 (stereo in doubt) [Compound 350, 4-[7-[3-cyano-4-(oxan-4-yloxy)phenyl]furo[3,2-b]pyridin-2-yl]-N-[(3S,5R)-5-(hydroxymethyl)-1-methylpyrrolidin-3-yl]-3-methoxybenzamide]	< 100 nM	< 100 nM	100 to 1000 nM
COc1cc(C(=O)NC2CC(CN(C)C)C2)ccc1-c1cc2nccc(-c3ccc(OC4CCOCC4)c(C#N)c3)c2o1 (stereo not drawn) [Compound 344, 4-[7-[3-cyano-4-(oxan-4-yloxy)phenyl]furo[3,2-b]pyridin-2-yl]-N-[3-[(dimethylamino)methyl]cyclobutyl]-3-methoxybenzamide]	< 100 nM	< 100 nM	100 to 1000 nM
COc1cc(C(=O)N2CC3CN(C)CC3C2)ccc1-c1cc2nccc(-c3ccc(OC4CCOCC4)c(C#N)c3)c2o1 (stereo not drawn) [Compound 9, 5-{2-[2-Methoxy-4-(5-methyl-hexahydro-pyrrolo[3,4-c]pyrrole-2-carbonyl)-phenyl]-furo[3,2-b]pyridin-7-yl}-2-(tetrahydro-pyran-4-yloxy)-benzonitrile]	< 100 nM	< 100 nM	< 100 nM
COc1cc(C(=O)N2CC[C@H](N(C)C)C2)cnc1-c1cc2nccc(-c3ccc(N4CC[C@@H](F)C4)c(C#N)c3)c2o1 [Compound 448, 5-{2-[5-((S)-3-Dimethylamino-pyrrolidine-1-carbonyl)-3-methoxy-pyridin-2-yl]-furo[3,2-b]pyridin-7-yl}-2-((R)-3-fluoro-pyrrolidin-1-yl)-benzonitrile]	< 100 nM	< 100 nM	< 100 nM
COc1cc(C(=O)N(C)CCO)ncc1-c1cc2nccc(-c3ccc(OC4CCOCC4)c(C#N)n3)c2o1 [Compound 376, 5-[7-[6-cyano-5-(oxan-4-yloxy)pyridin-2-yl]furo[3,2-b]pyridin-2-yl]-N-(2-hydroxyethyl)-4-methoxy-N-methylpyridine-2-carboxamide]	< 100 nM	< 100 nM	< 100 nM
COc1cc(C(=O)N2CC[C@@H](O)C2)ccc1-c1cc2nccc(-c3ccc(OC4CCOCC4)c(C#N)c3)c2o1 [Compound 43, 5-{2-[4-((R)-3-Hydroxy-pyrrolidine-1-carbonyl)-2-methoxy-phenyl]-furo[3,2-b]pyridin-7-yl}-2-(tetrahydro-pyran-4-yloxy)-benzonitrile]	< 100 nM	< 100 nM	100 to 1000 nM
COc1cc(C(=O)N(C)C)ncc1-c1cc2nccc(-c3ccc(NC4C5COCC54)c(C#N)c3)c2o1 (stereo not drawn) [Compound 437, 5-[7-[3-cyano-4-([3-oxabicyclo[3.1.0]hexan-6-yl]amino)phenyl]furo[3,2-b]pyridin-2-yl]-4-methoxy-N,N-dimethylpyridine-2-carboxamide]	< 100 nM	< 100 nM	100 to 1000 nM
COc1cc(C(=O)NC(C)(C)CCN(C)C)cnc1-c1cc2nccc(-c3ccc(NC4CCOCC4)c(C#N)c3)c2o1 [Compound 422, 6-(7-[3-cyano-4-[(oxan-4-yl)amino]phenyl]furo[3,2-b]pyridin-2-yl)-N-[4-(dimethylamino)-2-methylbutan-2-yl]-5-methoxypyridine-3-carboxamide]	< 100 nM	< 100 nM	< 100 nM
COc1cc(C(=O)N2CCC3(CC2)NCNC3=O)ccc1-c1cc2nccc(-c3ccc(NC4CCOCC4)c(C#N)c3)c2o1 [Compound 34, 5-{2-[2-Methoxy-4-(4-oxo-1,3,8-triaza-spiro[4.5]decane-8-carbonyl)-phenyl]-furo[3,2-b]pyridin-7-yl}-2-(tetrahydro-pyran-4-ylamino)-benzonitrile]	< 100 nM	< 100 nM	100 to 1000 nM
COc1cc(C(=O)N(C)C)ccc1-c1cc2nccc(-c3ccc(OCC4CCOC4)c(C#N)c3)c2o1 (stereo not drawn) [Compound 93, 4-{7-[3-Cyano-4-(tetrahydro-furan-3-ylmethoxy)-phenyl]-furo[3,2-b]pyridin-2-yl}-3-methoxy-N,N-dimethyl-benzamide]	< 100 nM	< 100 nM	100 to 1000 nM
